We go through one compound from patent publication US20240209353A1, “NADK2 INHIBITION IN CANCER AND FIBROTIC DISORDERS” (Memorial Sloan-Kettering Cancer Center, priority 2021, published 2024).

In the assay the test system is immunopurified mitochondria of DLD1-OMP25HA cells. Briefly: LC-MS metabolomic profiling, Mito-IP samples. It counts as cell-based, human. As to the method:
Rapid immunopurification of mitochondria was performed following the published methodology (4). In brief, cells with control or NADK2 knockout were engineered to express the HA-tagged OMP25 protein (Addgene, 83356); or in the case of FIG. 5E, parental DLD1 cells were engineered to express the HA-tagged OMP25 protein or the Myc-tagged OMP25 protein (Addgene, 83355), 30 million cells were washed and dounce homogenized in KPBS (136 mM KCl and 10 mM KH2PO4, pH 7.25). The homogenate was then cleared by centrifugation and the supernatant was applied to anti-HA beads (Thermo Fisher, 88837) and incubated with rotation for 3.5 min. The resultant beads were washed with KPBS and were eluted for different downstream analyses: Triton X-100 lysis buffer (50 mM Tris-HCl, pH 7.4, 150 mM NaCl, 1 mM EDTA, 1% (vol/vol) Triton X-100, and protease inhibitors) was used to elute mitochondria for Western blot analysis; 80:20 methanol:water containing 1.5 μM ^13C^15N labeled amino acids (Cambridge Isotope Laboratories, MSK-A2-1.2) was used to elute mitochondria for liquid chromatography-mass spectrometry (LC-MS) analysis; 80:20 methanol:water was used to elute mitochondria for NAD(H) and NADP(H) measurements; glutathione lysis buffer (see below) was used to elute mitochondria for GSH measurements.
For negative ionization mode liquid chromatography separation was achieved on an iHILIC-(P) Classic column (100 mm×2.1 mm, 5 μm particle size, HILICON). Mobile phase A was 10 mM ammonium bicarbonate in 10:90 acetonitrile:water with 5 μM medronic acid, pH 9.4 and mobile phase B was 10 mM ammonium bicarbonate in 90:10 acetonitrile:water with 5 μM medronic acid, pH 9.4). The gradient was 0 min, 95% B; 15 min, 50% B; 18 min, 50% B; 19 min, 95% B; 19.10 min, 95% B; 25.5 min, 95% B; 2 mins posttime. Other LC parameters were: flow rate: 200 μL/min; column temperature: 40° C., and injection volume was 2 μL. MS parameters were: gas temp: 300° C.; gas flow: 10 L/min; nebulizer pressure: 40 psig; sheath gas temp: 350° C.; sheath gas flow: 12 L/min; VCap: 3,000 V; fragmentor: 125 V. Data were acquired from m/z 50-1700 with active reference masses correction (m/z: 121.05087 and 922.00980 (positive mode) or m/z: 119.03632 and 980.01638 (negative mode). Peak identification and integration were done based on in-house exact mass and retention time library built from commercial standards. Data analysis and natural isotope abundance correction were performed using MassHunter Profinder software v10.0 (Agilent Technologies).
For metabolomic profiling of the Mito-IP samples, dried extracts were resuspended in 30 μL of 60:40 acetonitrile:water and an additional 7.5 μL of 100% methanol added to prevent phase separation. Samples were vortexed, incubated on ice for 20 min, and clarified by centrifugation at 20,000 g for 20 min at 4° C. LC-MS analysis was using the iHILIC-(P) Classic negative method described with 6545 Q-TOF mass spectrometer (Agilent Technologies). Whole cell extracts were analyzed in parallel and data analysis was performed using MassHunter Profinder v10.0 software (Agilent Technologies). Metabolite identifications reported were based on either (a) exact mass and retention times matched to authentic standards (denoted as RT in Tables 1A-1G) or (b) exact mass and MS2 spectra match using SIRIUS software (denoted as MS2 in Tables 1A-1G) (https://bio.informatik.uni-jena.de/software/sirius/). Metabolites were considered to be mitochondrial if the average peak area measured in anti-HA Mito-IPs from HA-tagged OMP25 cells was at least 1.5-fold more than in anti-HA Mito-IPs from the control cell expressing Myc-tagged OMP25 (scc Tables 1A-1G; FC>1.5 for [OMP25HA sgCtrl MitoIP vs. OMP25Myc MitoIP]).

Setting [1] is: DLD1-OMP25HA sgCtrl + Piericidin MitoIP, 5 μM 2 hours, rep01-rep03.

Each structure is given as a SMILES string. Several values for one entry are separate records, joined by “and”; a condition that tells them apart may be missing. Equal values may be shown once.

`C/C=C(\C)[C@H](O)[C@H](C)/C=C(C)/C=C/C/C(C)=C/Cc1nc(OC)c(OC)c(O)c1C` [piericidin]: under setting [1], the 2-aminoadipate level was 62966 and 65899 and 79200; the 3-hydroxy-3-methylglutarate level is 65452 and 77263 and 90857; the 3-hydroxyhexadecanoate level is 154313 and 165893 and 273073; the alpha-ketoglutarate level is 36956 and 33481 and 64213. Under setting [1], the carbamoyl aspartate level is 61946 and 44834 and 50496; the citrate level is 2652773 and 2956510 and 3197992; the dodecanoate level is 117632035 and 108567664 and 182339246; the galactonic acid level is 79663 and 109571 and 76436. Under setting [1], the glutamine level is 58654 and 57894 and 67465; the “glutathione, reduced (GSH) level” value is 5666886 and 8127441 and 4704089; the lactate level is 2355878 and 2582709 and 1383509; the malate level was 78861 and 87997 and 101969. Also, under setting [1], the methylmalonate level was 49637 and 60988 and 87945; the “methylthioribulose 1-phosphate level” value was 78919 and 79663 and 140471; the “nicotinamide adenine dinucleotide, reduced (NADH) level” value is 3526961 and 3705811 and 4542289; the oleate level was 3976796 and 4283346 and 4070066. Also, under setting [1], the palmitate level was 58619197 and 59278003 and 34887756; the pentadecanoic acid level was 988055 and 823203 and 616849; the phenylacetate level is 206078 and 155618 and 258772; the phosphoglycolic acid level was 12625 and 17645 and 24712. For the same compound, under setting [1], the succinate level is 32755 and 39006 and 43999; the taurine level is 3028424 and 3328577 and 3010797; the “uridine 5′-monophosphate (UMP) level” value was 149496 and 116561 and 209899. Also, the “glutamate and NADH levels in the mitochondria” value (sgCtrl DLD1-OMP25HA cells, 5 μM piericidin for 2 hours before Mito-IP) is “increased”.
